Source: patent publication US20230295234A1, “ANTIMICROBIAL PEPTIDOMIMETICS” (SPEXIS AG, priority 2020, published 2023)
Like-named read-outs stand apart in the source and are kept apart here. Bridge positions count the residues as written; N and C are the ends. Square brackets hold non-standard residues; d marks the D form. Peptide text beside a SMILES is read from it. * marks the point of attachment. Val(Nα-amidino) = CC(C)[C@H](NC(=N)N)C(=O)*; Pro(4R-NH2) = N[C@H]1CN[C@H](C(=O)O)C1; Pen = CC(C)(S)[C@H](N)C(=O)O; dDab = NCC[C@@H](N)C(=O)O; Dab = NCC[C@H](N)C(=O)O

How the values were obtained:
[1] = test system: Escherichia coli ATCC 25922
Outline: (§1)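 Broth microdilution; cation-adjusted MHII; inoculum ~5×10^5 CFU/mL from 0.5 McFarland saline suspension; peptide two-fold serial dilutions; polysorbate 80 0.002% final; peptide stock 1 mg/mL in water.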

[2] = test system: Escherichia coli MCR-1 Af 45; conditions: Mueller-Hinton broth II, 18-20 hours at 35° C.
Outline: as §1

[3] = test system: Klebsiella pneumoniae SSI3010
Outline: as §1

[4] = test system: human red blood cells (hRBC); experiment: Hemolysis of human red blood cells; assay type: cell-based
Outline: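 PBS-washed human red blood cells (20% v/v) were incubated with peptide at 200 μg/mL for 1 h at 37 °C with shaking. Supernatant OD was read at 540 nm after 8-fold dilution. Hemolysis is expressed as percent of the water control.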

[5] = Mueller-Hinton broth II, 18-20 hours at 35° C.

Row | SMILES | Escherichia coli ATCC 25922 MIC ([1]; ATCC 25922) [mg/L] | Escherichia coli MCR-1 Af 45 MIC [2] [mg/L] | Klebsiella pneumoniae SSI3010 MIC ([3]; SSI3010) [mg/L] | Hemolysis at 0.2 g/L ([4]; red cells of human, 1 h) [%] | Escherichia coli ATCC 25922 MIC [1, 5] [mg/L] | Klebsiella pneumoniae SSI3010 MIC [3, 5] [mg/L] | Hemolysis at 0.2 g/L ([4]; 20% hRBC, 1 h at 37° C.) [%]
1 | CC[C@H](C)[C@H](NC(=O)[C@@H]1C[C@@H](O)CN1C(=O)[C@@H](N)C(C)C)C(=O)N[C@H](C(=O)N[C@@H](Cc1ccc(O)cc1)C(=O)N[C@@H]1C(=O)N[C@@H](CN)C(=O)N[C@@H](CCCNC(=N)N)C(=O)N[C@@H](CCN)C(=O)N[C@@H]([C@@H](C)O)C(=O)N[C@H](CCN)C(=O)N[C@@H](CCCCN)C(=O)N[C@H](C(=O)N[C@@H](CCN)C(=O)N[C@@H](CCCNC(=N)N)C(=O)N[C@@H](Cc2ccc(O)cc2)C(=O)O)CSSC1(C)C)[C@@H](C)O [Example 182] (HELM PEPTIDE1{V.[Hyp].I.T.Y.[Pen].[NC[C@H](N[*:1])C(=O)[*:2]].R.[Dab].T.[NCC[C@@H](N[*:1])C(=O)[*:2]].K.C.[Dab].R.Y}$PEPTIDE1,PEPTIDE1,6:R3-13:R3$$$V2.0) | 0.0625 | 0.125 | 0.25 | 0 | – | – | –
2 | CC[C@H](C)[C@H](NC(=O)[C@@H]1C[C@@H](O)CN1C(=O)[C@@H](N)C(C)C)C(=O)N[C@@H](CN)C(=O)N[C@@H](Cc1ccc(O)cc1)C(=O)N[C@@H]1C(=O)N[C@@H](CC(N)=O)C(=O)N[C@@H](CCCNC(=N)N)C(=O)N[C@@H](CCN)C(=O)N[C@@H]([C@@H](C)O)C(=O)N[C@H](CCN)C(=O)N[C@@H](CCCCN)C(=O)N[C@H](C(=O)N[C@@H](CCN)C(=O)N[C@@H](CCCNC(=N)N)C(=O)N[C@@H](Cc2ccc(O)cc2)C(=O)O)CSSC1(C)C [Example 183] (HELM PEPTIDE1{V.[Hyp].I.[NC[C@H](N[*:1])C(=O)[*:2]].Y.[Pen].N.R.[Dab].T.[NCC[C@@H](N[*:1])C(=O)[*:2]].K.C.[Dab].R.Y}$PEPTIDE1,PEPTIDE1,6:R3-13:R3$$$V2.0) | 0.25 | 0.125 | 0.5 | 0 | – | – | –
3 | CC[C@H](C)[C@H](NC(=O)[C@@H]1C[C@@H](O)CN1C(=O)[C@@H](N)C(C)C)C(=O)N[C@@H](CCCNC(=N)N)C(=O)N[C@@H](Cc1ccc(O)cc1)C(=O)N[C@@H]1C(=O)N[C@@H](CC(N)=O)C(=O)N[C@@H](CCCNC(=N)N)C(=O)N[C@@H](CCN)C(=O)N[C@@H]([C@@H](C)O)C(=O)N[C@H](CCN)C(=O)N[C@@H](CCCCN)C(=O)N[C@H](C(=O)N[C@@H](CCN)C(=O)N[C@@H](CCCNC(=N)N)C(=O)N[C@@H](Cc2ccc(O)cc2)C(=O)O)CSSC1(C)C [Example 184] (HELM PEPTIDE1{V.[Hyp].I.R.Y.[Pen].N.R.[Dab].T.[NCC[C@@H](N[*:1])C(=O)[*:2]].K.C.[Dab].R.Y}$PEPTIDE1,PEPTIDE1,6:R3-13:R3$$$V2.0) | 0.25 | 0.0625 | 0.25 | 0 | – | – | –
4 | CC[C@H](C)[C@H](NC(=O)[C@@H]1C[C@@H](N)CN1C(=O)[C@@H](N)C(C)C)C(=O)N[C@H](C(=O)N[C@@H](Cc1ccc(O)cc1)C(=O)N[C@@H]1C(=O)N[C@@H](CC(N)=O)C(=O)N[C@@H](CCCNC(=N)N)C(=O)N[C@@H](CCN)C(=O)N[C@@H]([C@@H](C)O)C(=O)N[C@H](CCN)C(=O)N[C@@H](CCCCN)C(=O)N[C@H](C(=O)N[C@@H](Cc2ccc(O)cc2)C(=O)N[C@@H](CCCNC(=N)N)C(=O)N[C@@H](Cc2ccc(O)cc2)C(=O)O)CSSC1(C)C)[C@@H](C)O [Example 185] (HELM PEPTIDE1{V.[N[C@@H]1C[C@@H](C(=O)[*:2])N([*:1])C1].I.T.Y.[Pen].N.R.[Dab].T.[NCC[C@@H](N[*:1])C(=O)[*:2]].K.C.Y.R.Y}$PEPTIDE1,PEPTIDE1,6:R3-13:R3$$$V2.0) | 0.25 | 0.125 | 0.5 | 0 | – | – | –
5 | CC[C@H](C)[C@H](NC(=O)[C@@H](NC(=O)[C@@H]1CCCN1C(=O)[C@@H](NC(=N)N)C(C)C)[C@@H](C)CC)C(=O)N[C@@H](Cc1ccc(O)cc1)C(=O)N[C@H]1CSSC[C@@H](C(=O)N[C@@H](CCN)C(=O)N[C@@H](CCCNC(=N)N)C(=O)N[C@@H](Cc2ccc(O)cc2)C(=O)O)NC(=O)[C@H](CCCCN)NC(=O)[C@@H](CCN)NC(=O)[C@H]([C@@H](C)O)NC(=O)[C@H](CCN)NC(=O)[C@H](CCCNC(=N)N)NC(=O)[C@H](CC(N)=O)NC1=O [Example 186] (HELM PEPTIDE1{[CC(C)[C@H](NC(=N)N)C(=O)[*:2]].P.I.I.Y.C.N.R.[Dab].T.[NCC[C@@H](N[*:1])C(=O)[*:2]].K.C.[Dab].R.Y}$PEPTIDE1,PEPTIDE1,6:R3-13:R3$$$V2.0) | 0.125 | 0.125 | ≤0.25 | 0 | – | – | –
6 | CC[C@H](C)[C@H](NC(=O)[C@@H](NC(=O)[C@@H]1CCCN1C(=O)[C@@H](NC(=N)N)C(C)C)[C@@H](C)CC)C(=O)N[C@@H](Cc1ccc(O)cc1)C(=O)N[C@@H]1C(=O)N[C@@H](CC(N)=O)C(=O)N[C@@H](CCCNC(=N)N)C(=O)N[C@@H](CCN)C(=O)N[C@@H]([C@@H](C)O)C(=O)N[C@H](CCN)C(=O)N[C@@H](CCCCN)C(=O)N[C@H](C(=O)N[C@@H](CCN)C(=O)N[C@@H](CCCNC(=N)N)C(=O)N[C@@H](Cc2ccc(O)cc2)C(=O)O)CSSC1(C)C [Example 187] (HELM PEPTIDE1{[CC(C)[C@H](NC(=N)N)C(=O)[*:2]].P.I.I.Y.[Pen].N.R.[Dab].T.[NCC[C@@H](N[*:1])C(=O)[*:2]].K.C.[Dab].R.Y}$PEPTIDE1,PEPTIDE1,6:R3-13:R3$$$V2.0) | – | 0.125 | – | – | 0.125 | 0.125 | 0
7 | CC[C@H](C)[C@H](NC(=O)[C@@H]1C[C@@H](O)CN1C(=O)[C@@H](NC(=N)N)C(C)C)C(=O)N[C@H](C(=O)N[C@@H](Cc1ccc(O)cc1)C(=O)N[C@@H]1C(=O)N[C@@H](CC(N)=O)C(=O)N[C@@H](CCCNC(=N)N)C(=O)N[C@@H](CCN)C(=O)N[C@@H]([C@@H](C)O)C(=O)N[C@H](CCN)C(=O)N[C@@H](CCCCN)C(=O)N[C@H](C(=O)N[C@@H](CCN)C(=O)N[C@@H](CCCNC(=N)N)C(=O)N[C@@H](Cc2ccc(O)cc2)C(=O)O)CSSC1(C)C)[C@@H](C)O [Example 188] (HELM PEPTIDE1{[CC(C)[C@H](NC(=N)N)C(=O)[*:2]].[Hyp].I.T.Y.[Pen].N.R.[Dab].T.[NCC[C@@H](N[*:1])C(=O)[*:2]].K.C.[Dab].R.Y}$PEPTIDE1,PEPTIDE1,6:R3-13:R3$$$V2.0) | 0.125 | ≤0.125 | 0.25 | 0 | – | – | –
8 | CC[C@H](C)[C@H](NC(=O)[C@@H](NC(=O)[C@@H]1C[C@@H](O)CN1C(=O)[C@@H](NC(=N)N)C(C)C)[C@@H](C)CC)C(=O)N[C@@H](Cc1ccc(O)cc1)C(=O)N[C@@H]1C(=O)N[C@@H](CC(N)=O)C(=O)N[C@@H](CCCNC(=N)N)C(=O)N[C@@H](CCN)C(=O)N[C@@H]([C@@H](C)O)C(=O)N[C@H](CCN)C(=O)N[C@@H](CCCCN)C(=O)N[C@H](C(=O)N[C@@H](CCN)C(=O)N[C@@H](CCCNC(=N)N)C(=O)N[C@@H](Cc2ccc(O)cc2)C(=O)O)CSSC1(C)C [Example 189] (HELM PEPTIDE1{[CC(C)[C@H](NC(=N)N)C(=O)[*:2]].[Hyp].I.I.Y.[Pen].N.R.[Dab].T.[NCC[C@@H](N[*:1])C(=O)[*:2]].K.C.[Dab].R.Y}$PEPTIDE1,PEPTIDE1,6:R3-13:R3$$$V2.0) | – | 0.03125 | – | – | 0.03125 | 0.0625 | 0
9 | CC[C@H](C)[C@H](NC(=O)[C@@H]1C[C@@H](N)CN1C(=O)[C@@H](NC(=N)N)C(C)C)C(=O)N[C@H](C(=O)N[C@@H](Cc1ccc(O)cc1)C(=O)N[C@@H]1C(=O)N[C@@H](CC(N)=O)C(=O)N[C@@H](CCCNC(=N)N)C(=O)N[C@@H](CCN)C(=O)N[C@@H]([C@@H](C)O)C(=O)N[C@H](CCN)C(=O)N[C@@H](CCCCN)C(=O)N[C@H](C(=O)N[C@@H](CCN)C(=O)N[C@@H](CCCNC(=N)N)C(=O)N[C@@H](Cc2ccc(O)cc2)C(=O)O)CSSC1(C)C)[C@@H](C)O [Example 190] ({Val(Nα-amidino)}-[Pro(4R-NH2)]ITY[Pen]NR[Dab]T[dDab]KC[Dab]RY-OH; disulfide 5-12) | 0.0625 | 0.0625 | 0.125 | 0 | – | – | –
10 | CC[C@H](C)[C@H](NC(=O)[C@@H](NC(=O)[C@@H]1C[C@@H](N)CN1C(=O)[C@@H](NC(=N)N)C(C)C)[C@@H](C)CC)C(=O)N[C@@H](Cc1ccc(O)cc1)C(=O)N[C@@H]1C(=O)N[C@@H](CC(N)=O)C(=O)N[C@@H](CCCNC(=N)N)C(=O)N[C@@H](CCN)C(=O)N[C@@H]([C@@H](C)O)C(=O)N[C@H](CCN)C(=O)N[C@@H](CCCCN)C(=O)N[C@H](C(=O)N[C@@H](CCN)C(=O)N[C@@H](CCCNC(=N)N)C(=O)N[C@@H](Cc2ccc(O)cc2)C(=O)O)CSSC1(C)C [Example 191] ({Val(Nα-amidino)}-[Pro(4R-NH2)]IIY[Pen]NR[Dab]T[dDab]KC[Dab]RY-OH; disulfide 5-12) | 0.0625 | 0.0625 | 0.0625 | 0 | – | – | –
